According to ChEMBL document CHEMBL1781983, “Hop (Humulus lupulus)-derived bitter acids as multipotent bioactive compounds” (J Nat Prod, 2009):
pIC50: −log10 of the molar value.

Experiments:
[1] = tested on: Radical scavenging activity; test: Antioxidant activity assessed as DPPH radical scavenging activity; format: functional
[2] = Antioxidant activity assessed as inhibition of lipid peroxidation; format: functional
[3] = tested on: Mus musculus; test: Antiangiogenic activity in mouse at 0.01%, po for 21 days; format: functional
[4] = Antiangiogenic activity against bFGF-indeced mouse KOP2.16 cells assessed as reduction in cell growth at 10 uM; format: functional
[5] = molecular target: T1, Prostaglandin G/H synthase 2 (Mus musculus, UniProt Q05769); test: Inhibition of COX2-mediated PGE2 production in TNF-alpha-induced mouse MC3T3-E1 cells
T1 sequence (Q05769 whole entry): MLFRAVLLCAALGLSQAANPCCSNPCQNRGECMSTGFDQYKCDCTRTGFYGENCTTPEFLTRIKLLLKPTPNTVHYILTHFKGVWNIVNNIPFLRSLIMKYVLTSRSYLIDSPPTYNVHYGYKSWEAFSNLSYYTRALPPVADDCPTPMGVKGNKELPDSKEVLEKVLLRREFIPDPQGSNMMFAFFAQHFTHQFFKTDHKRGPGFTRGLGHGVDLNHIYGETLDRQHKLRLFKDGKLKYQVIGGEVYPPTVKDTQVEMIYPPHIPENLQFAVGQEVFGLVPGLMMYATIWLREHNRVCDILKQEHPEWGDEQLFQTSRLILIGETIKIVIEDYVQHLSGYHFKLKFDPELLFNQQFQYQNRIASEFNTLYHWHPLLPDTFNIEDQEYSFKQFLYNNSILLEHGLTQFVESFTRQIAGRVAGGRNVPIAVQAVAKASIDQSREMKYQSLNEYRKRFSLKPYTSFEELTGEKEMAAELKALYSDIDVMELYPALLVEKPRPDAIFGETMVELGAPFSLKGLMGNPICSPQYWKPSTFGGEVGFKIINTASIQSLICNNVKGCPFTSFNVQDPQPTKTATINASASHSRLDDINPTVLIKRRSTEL

[6] = tested on: Mus musculus; test: Antiinflammatory activity in mouse assessed as inhibition of TPA-induced ear edema measured per ear; format: functional
[7] = tested on: Chorioallantoic membrane; test: Inhibition of angiogenesis in chick embryo chorioallantoic membranes; format: functional; details: Gallus gallus
[8] = tested on: Osteoclast; test: Inhibition of osteoporotic lesion formation in ICR mouse osteoclasts bone cells using ivory pieces after 2 days by pit formation assay; format: functional, cell-based; details: 48 h
[9] = Antioxidant activity in human RBC assessed as inhibition of hydrogen peroxide-induced hemolysis after 3 hrs; format: functional, cell-based; details: erythrocyte
[10] = tested on: U-937; test: Antiproliferative activity against human U937 cells

pIC50 [1] | pIC50 [2] | pIC50 [5] | pIC50 [8] | pIC50 [10] | Structure (SMILES) | inhibition (INH) [3] [%] | inhibition at 10 µM [4] [%] | ID50 [6] [mg] | ED50 [7] [µg] | pIC50 [9]
4.60 | 4.41 | – | – | – | CC(C)=CCC1=C(O)C(C(=O)CC(C)C)=C(O)C(CC=C(C)C)(CC=C(C)C)C1=O [LUPULONE] | 50 | – | – | – | –
4.49 | 5.10 | 7.52 | 8.23 | 5.47 | CC(C)=CCC1C(=O)C(C(=O)CC(C)C)=C(O)C(O)(CC=C(C)C)C1=O (centres undefined) [HUMULONE] | – | 20 | 0.2 | 1.5 | 4.55
– | – | – | – | – | COc1ccc2c(c1)c(CC(=O)O)c(C)n2C(=O)c1ccc(Cl)cc1 [INDOMETHACIN] | – | – | 0.3 | – | –
– | – | – | – | – | C[C@]12CCC(=O)C=C1CC[C@@H]1[C@@H]2[C@@H](O)C[C@@]2(C)[C@H]1CC[C@]2(O)C(=O)CO [HYDROCORTISONE] | – | – | 0.03 | – | –
